Experimental data from ChEMBL document CHEMBL1133961, “Chemo-enzymatic synthesis of the Galili epitope Gal(alpha)(1-->3)Galbeta(1-->4)GlcNAc on a homogeneously soluble PEG polymer by a multi-enzyme system” (Bioorg Med Chem Lett, 2001).

Key:
[1] = (§1) Kinetic data for inhibition of Beta-1,4-GalT by free N-acetyl-glucosamine; design: species or system Homo sapiens
[2] = (§2) Kinetic data for inhibition of Beta-1,4-GalT by polymer-supported Nacetylglucosamine.; design: species or system Homo sapiens
Homo sapiens = organism: Homo sapiens; assay: as §1
[3] = as §1; details: human
[4] = as §2; details: human

SMILES: CC(=O)N[C@@H]1[C@@H](O)[C@H](O)[C@@H](CO)O[C@H]1O [N-ACETYLGLUCOSAMINE]
- Ki [1]: 14.3 mM
- Ki [2]: 0.54 mM
- Km (Homo sapiens): 34.6 mM
- Vmax [3]: 2.62 U mg-1
- Km [4]: 10.5 mM
- Vmax [4]: 4.73 U mg-1
